Reference: PubChem BioAssay AID1462 (Emory University Molecular Libraries Screening Center, 2008)
Where “and” joins values, the source holds several entries; their conditions need not be identical. Equal values may be shown once.

Molecular target: Protein GrpE (Escherichia coli (strain K12)) (UniProt P09372)
Test: inhibition of DnaK/DnaJ/GrpE luciferase refolding – biochemical, luminescence, E. coli K12, dose response (AID 1462)
Conditions: DnaK/DnaJ/GrpE denatured luciferase refolding

Chain of Protein GrpE (Escherichia coli (strain K12)) (P09372 whole entry, looked up): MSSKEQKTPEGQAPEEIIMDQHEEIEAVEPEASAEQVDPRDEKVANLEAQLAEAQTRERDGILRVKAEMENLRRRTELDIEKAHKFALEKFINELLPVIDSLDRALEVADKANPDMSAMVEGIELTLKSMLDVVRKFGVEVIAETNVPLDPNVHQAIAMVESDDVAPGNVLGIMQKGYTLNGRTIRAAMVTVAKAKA

For `Nc1c(S(=O)(=O)O)cc(Nc2ccc(Nc3nc(Cl)nc(Nc4ccc(S(=O)(=O)O)cc4)n3)c(S(=O)(=O)O)c2)c2c1C(=O)c1ccccc1C2=O`, the IC50 was 1660 nM and 551 nM.
